30 molecules from patent US20210128566A1, “NOVEL FUNCTIONALIZED PURINE-2,6-DIONES AND THEIR USE IN MEDICINE” (THOMAS HELLEDAYS STIFTELSE FÖR MEDICINSK FORSKNING, priority 2017, published 2021) can be followed below.

The test addresses recombinant human NUDT5 (Homo sapiens, UniProt Q9UKK9). In words: NUDT5 inhibitor activity by malachite green reporter assay. The format is biochemical. As to conditions: Table 4; 6 nM NUDT5, 50 μM ADP-Ribose, 15 minutes at room temperature. The method, boiled down:
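Coupled ADP-ribose hydrolysis in 10 mM Tris-acetate pH 8.0, 40 mM NaCl, 10 mM Mg acetate, 0.005% Tween-20, 1 mM DTT: 6 nM NUDT5, 50 μM ADP-Ribose, 10 U/ml alkaline phosphatase, 15 min at room temperature. Pi read by malachite green at 630 nm; compounds 100 μM–1.7 nM, 3-fold; IC50 by curve fit.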
For orientation: Reporter assays use an easily measured gene product as a stand-in for the process of interest.

Molecules are shown by their SMILES.

Take `Cn1c(=O)c2c(nc(-n3cccn3)n2Cc2nnc(-c3ccc(Cl)c(Cl)c3)o2)n(C)c1=O` [Example 67, 7-{[5-(3,4-dichlorophenyl)-1,3,4-oxadiazol-2-yl]methyl}-1,3-dimethyl-8-(1H-pyrazol-1-yl)-2,3,6,7-tetrahydro-1H-purine-2,6-dione]: the IC50 stood at 200 nM.

On to `CCOC(=O)c1cnn(-c2nc3c(c(=O)n(C)c(=O)n3C)n2Cc2nnc(-c3ccc(Cl)c(Cl)c3)o2)c1` [Example 68, ethyl 1-(7-{[5-(3,4-dichlorophenyl)-1,3,4-oxadiazol-2-yl]methyl}-1,3-dimethyl-2,6-dioxo-2,3,6,7-tetrahydro-1H-purin-8-yl)-1H-pyrazole-4-carboxylate], for which the IC50 turned out to be 214 nM.

Take `Cn1c(=O)c2c(nc(Cl)n2Cc2nc(-c3ccc(Cl)cc3)no2)n(C)c1=O` [Example 69, 8-chloro-7-{[3-(4-chlorophenyl)-1,2,4-oxadiazol-5-yl]methyl}-1,3-dimethyl-2,3,6,7-tetrahydro-1H-purine-2,6-dione]: the IC50 was 296 nM.

In the case of `Cn1c(=O)c2c(nc(N3CCNCC3)n2Cc2nc(-c3ccc(Cl)cc3)no2)n(C)c1=O` [Example 70, 7-{[3-(4-chlorophenyl)-1,2,4-oxadiazol-5-yl]methyl}-1,3-dimethyl-8-(piperazin-1-yl)-2,3,6,7-tetrahydro-1H-purine-2,6-dione], the concentration for half-maximal inhibition (IC50) is 57.4 nM.

For `Cn1c(=O)c2c(nc(Cl)n2Cc2coc(-c3ccc(Cl)c(Cl)c3)n2)n(C)c1=O` [Example 71, 8-chloro-7-{[2-(3,4-dichlorophenyl)-1,3-oxazol-4-yl]methyl}-1,3-dimethyl-2,3,6,7-tetrahydro-1H-purine-2,6-dione], the IC50 was found to be 81.6 nM.

As for `Cn1c(=O)c2c(nc(N3CCNCC3)n2Cc2coc(-c3ccc(Cl)c(Cl)c3)n2)n(C)c1=O` [Example 72, 7-{[2-(3,4-dichlorophenyl)-1,3-oxazol-4-yl]methyl}-1,3-dimethyl-8-(piperazin-1-yl)-2,3,6,7-tetrahydro-1H-purine-2,6-dione], the IC50 stood at 21 nM.

For `COc1ccc(-c2nnc(Cn3c(Cl)nc4c3c(=O)n(C)c(=O)n4C)o2)cc1` [Example 73, 8-chloro-7-{[5-(4-methoxyphenyl)-1,3,4-oxadiazol-2-yl]methyl}-1,3-dimethyl-2,3,6,7-tetrahydro-1H-purine-2,6-dione], the IC50 is 1260 nM.

`COc1ccc(-c2nnc(Cn3c(N4CCNCC4)nc4c3c(=O)n(C)c(=O)n4C)o2)cc1` [Example 74, 7-{[5-(4-methoxyphenyl)-1,3,4-oxadiazol-2-yl]methyl}-1,3-dimethyl-8-(piperazin-1-yl)-2,3,6,7-tetrahydro-1H-purine-2,6-dione]: the IC50 stood at 198 nM.

For the molecule `Cn1c(=O)c2c(nc(Cl)n2Cc2cnc(-c3ccc(Cl)cc3)s2)n(C)c1=O` [Example 75, 8-chloro-7-{[2-(4-chlorophenyl)-1,3-thiazol-5-yl]methyl}-1,3-dimethyl-2,3,6,7-tetrahydro-1H-purine-2,6-dione], the IC50 was 239 nM.

`Cn1c(=O)c2c(nc(N3CCNCC3)n2Cc2cnc(-c3ccc(Cl)cc3)s2)n(C)c1=O` [Example 76, 7-{[2-(4-chlorophenyl)-1,3-thiazol-5-yl]methyl}-1,3-dimethyl-8-(piperazin-1-yl)-2,3,6,7-tetrahydro-1H-purine-2,6-dione]: the IC50 worked out at 376 nM.

`COc1ccc(-c2cc(Cn3c(Cl)nc4c3c(=O)n(C)c(=O)n4C)on2)cc1` [Example 77, 8-chloro-7-{[3-(4-methoxyphenyl)-1,2-oxazol-5-yl]methyl}-1,3-dimethyl-2,3,6,7-tetrahydro-1H-purine-2,6-dione]: the IC50 came to 19700 nM.

With `COc1ccc(-c2cc(Cn3c(N4CCNCC4)nc4c3c(=O)n(C)c(=O)n4C)on2)cc1` [Example 78, 7-{[3-(4-methoxyphenyl)-1,2-oxazol-5-yl]methyl}-1,3-dimethyl-8-(piperazin-1-yl)-2,3,6,7-tetrahydro-1H-purine-2,6-dione], the IC50 was 491 nM.

Consider `Cc1ccc(-c2cc(Cn3c(N4CCNCC4)nc4c3c(=O)n(C)c(=O)n4C)no2)cc1` [Example 79, 1,3-dimethyl-7-{[5-(4-methylphenyl)-1,2-oxazol-3-yl]methyl}-8-(piperazin-1-yl)-2,3,6,7-tetrahydro-1H-purine-2,6-dione], for which the IC50 is 530 nM.

Consider `Cc1ccc(-c2cc(Cn3c(Cl)nc4c3c(=O)n(C)c(=O)n4C)no2)cc1` [Example 80, 8-chloro-1,3-dimethyl-7-{[5-(4-methylphenyl)-1,2-oxazol-3-yl]methyl}-2,3,6,7-tetrahydro-1H-purine-2,6-dione], for which the IC50 stood at 3790 nM.

On to `CCOC(=O)c1cn2c(n1)CN(c1nc3c(c(=O)n(C)c(=O)n3C)n1Cc1nnc(-c3ccc(Cl)c(Cl)c3)o1)CC2` [Example 81, ethyl 7-(7-{[5-(3,4-dichlorophenyl)-1,3,4-oxadiazol-2-yl]methyl}-1,3-dimethyl-2,6-dioxo-2,3,6,7-tetrahydro-1H-purin-8-yl)-5H,6H,7H,8H-imidazo[1,2-a]pyrazine-2-carboxylate], for which the IC50 stood at 149 nM.

With `Cn1c(=O)c2c(nc(NCCS(=O)(=O)O)n2Cc2nnc(-c3ccc(Cl)c(Cl)c3)o2)n(C)c1=O` [Example 82, 2-[(7-{[5-(3,4-dichlorophenyl)-1,3,4-oxadiazol-2-yl]methyl}-1,3-dimethyl-2,6-dioxo-2,3,6,7-tetrahydro-1H-purin-8-yl)amino]ethane-1-sulfonic acid], the IC50 was 454 nM.

As for `Cn1c(=O)c2c(nc(N3CCNC(=O)C3)n2Cc2nnc(-c3ccc(Cl)c(Cl)c3)o2)n(C)c1=O` [Example 83, 7-{[5-(3,4-dichlorophenyl)-1,3,4-oxadiazol-2-yl]methyl}-1,3-dimethyl-8-(3-oxopiperazin-1-yl)-2,3,6,7-tetrahydro-1H-purine-2,6-dione], the IC50 worked out at 20.2 nM.

As to `Cn1c(=O)c2c(nc(NCC(=O)OC(C)(C)C)n2Cc2nnc(-c3ccc(Cl)c(Cl)c3)o2)n(C)c1=O` [Example 84, tert-butyl 2-[(7-{[5-(3,4-dichlorophenyl)-1,3,4-oxadiazol-2-yl]methyl}-1,3-dimethyl-2,6-dioxo-2,3,6,7-tetrahydro-1H-purin-8-yl)amino]acetate], the IC50 turned out to be 93.6 nM.

For the molecule `Cn1c(=O)c2c(nc(NCC3CCN(C(=N)N)CC3)n2Cc2nnc(-c3ccc(Cl)c(Cl)c3)o2)n(C)c1=O` [Example 85, 4-{[(7-{[5-(3,4-dichlorophenyl)-1,3,4-oxadiazol-2-yl]methyl}-1,3-dimethyl-2,6-dioxo-2,3,6,7-tetrahydro-1H-purin-8-yl)amino]methyl}piperidine-1-carboximidamide], the half-inhibitory concentration (IC50) amounted to 19.5 nM.

Consider `COc1ccc(CNc2nc3c(c(=O)n(C)c(=O)n3C)n2Cc2nnc(-c3ccc(Cl)c(Cl)c3)o2)c(OC)c1` [Example 86, 7-{[5-(3,4-dichlorophenyl)-1,3,4-oxadiazol-2-yl]methyl}-8-{[(2,4-dimethoxyphenyl)methyl]amino}-1,3-dimethyl-2,3,6,7-tetrahydro-1H-purine-2,6-dione], for which the IC50 was determined as 184 nM.

As to `Cn1c(=O)c2c(nc(N)n2Cc2nnc(-c3ccc(Cl)c(Cl)c3)o2)n(C)c1=O` [Example 87, 8-amino-7-{[5-(3,4-dichlorophenyl)-1,3,4-oxadiazol-2-yl]methyl}-1,3-dimethyl-2,3,6,7-tetrahydro-1H-purine-2,6-dione], the half-inhibitory concentration (IC50) is 16.5 nM.

In the case of `Cn1c(=O)c2c(nc(Cl)n2Cc2nnc(-c3ccccc3)o2)n(C)c1=O` [Example 88, 8-chloro-1,3-dimethyl-7-[(5-phenyl-1,3,4-oxadiazol-2-yl)methyl]-2,3,6,7-tetrahydro-1H-purine-2,6-dione], the half-inhibitory concentration (IC50) came out at 3590 nM.

For `Cn1c(=O)c2c(nc(Cl)n2Cc2nnc(-c3ccc(Cl)cc3)o2)n(C)c1=O` [Example 89, 8-chloro-7-{[5-(4-chlorophenyl)-1,3,4-oxadiazol-2-yl]methyl}-1,3-dimethyl-2,3,6,7-tetrahydro-1H-purine-2,6-dione], the IC50 turned out to be 620 nM.

As for `Cn1c(=O)c2c(nc(Cl)n2Cc2nnc(-c3ccc(F)cc3)o2)n(C)c1=O` [Example 90, 8-chloro-7-{[5-(4-fluorophenyl)-1,3,4-oxadiazol-2-yl]methyl}-1,3-dimethyl-2,3,6,7-tetrahydro-1H-purine-2,6-dione], the IC50 came to 4390 nM.

Consider `Cn1c(=O)c2c(nc(Cl)n2Cc2nnc(-c3cccc(F)c3)o2)n(C)c1=O` [Example 91, 8-chloro-7-{[5-(3-fluorophenyl)-1,3,4-oxadiazol-2-yl]methyl}-1,3-dimethyl-2,3,6,7-tetrahydro-1H-purine-2,6-dione], for which the IC50 came out at 2150 nM.

Take `COc1cccc(-c2nnc(Cn3c(Cl)nc4c3c(=O)n(C)c(=O)n4C)o2)c1` [Example 92, 8-chloro-7-{[5-(3-methoxyphenyl)-1,3,4-oxadiazol-2-yl]methyl}-1,3-dimethyl-2,3,6,7-tetrahydro-1H-purine-2,6-dione]: the IC50 is 596 nM.

For `Cn1c(=O)c2c(nc(Cl)n2Cc2nnc(-c3ccc(C#N)cc3)o2)n(C)c1=O` [Example 93, 4-{5-[(8-chloro-1,3-dimethyl-2,6-dioxo-2,3,6,7-tetrahydro-1H-purin-7-yl)methyl]-1,3,4-oxadiazol-2-yl}benzonitrile], the IC50 amounted to 918 nM.

Consider `Cn1c(=O)c2c(nc(Cl)n2Cc2nnc(-c3cccnc3)o2)n(C)c1=O` [Example 94, 8-chloro-1,3-dimethyl-7-{[5-(pyridin-3-yl)-1,3,4-oxadiazol-2-yl]methyl}-2,3,6,7-tetrahydro-1H-purine-2,6-dione], for which the IC50 stood at 6910 nM.

As to `Cn1c(=O)c2c(nc(Cl)n2Cc2nnc(-c3ccc(Cl)nc3)o2)n(C)c1=O` [Example 95, 8-chloro-7-{[5-(6-chloropyridin-3-yl)-1,3,4-oxadiazol-2-yl]methyl}-1,3-dimethyl-2,3,6,7-tetrahydro-1H-purine-2,6-dione], the IC50 came to 1380 nM.

Regarding `Cn1c(=O)c2c(nc(Cl)n2Cc2nnc(-c3ccc([N+](=O)[O-])cc3)o2)n(C)c1=O` [Example 96, 8-chloro-1,3-dimethyl-7-{[5-(4-nitrophenyl)-1,3,4-oxadiazol-2-yl]methyl}-2,3,6,7-tetrahydro-1H-purine-2,6-dione], the IC50 was determined as 1510 nM.

The IC50 is the concentration needed to halve the response being measured.
